Measured values taken from patent publication US20230414715A1, “TRAIL COMPOUNDS FOR REDUCING CANCER TREAMENT SIDE EFFECTS” (BROWN UNIVERSITY, priority 2022, published 2023).
Entries after “also recorded” stand apart in the source; their conditions may differ.

Experiments:
[1] = tested on: TRAIL-/- female mice; assay: In vivo respiration-gated microCT imaging of lungs; set-up: species or system mouse; conditions: 15 Gy
Description: For μCT imaging, all mice were imaged in a SkyScan 1276 in vivo microCT scanner (Bruker, Kontich, Belgium) under isoflurane at 41 μm voxels with a 0.7° rotation step in supine position. […] Mice underwent μCT scans 13 days post irradiation. Image-based respiratory gating was used to sort images into gates based on specific time points of the breathing cycle to minimize motion artifact in the final reconstruction. For 3D reconstruction, Dataviewer version 1.5.4 (Bruker) was used to sort the CT images using the function “Listmode Scan” grouping the images in each bin where bin 0=maximum exhale and bin 3=maximum inhale (empty views <10%). Once the images were sorted, the listmode dataset was opened in NRecon software (Bruker) where the ROI undergoes 3D reconstruction. Reconstructed images were then analyzed in CTAn software (Bruker) where the volume of the lungs was calculated during max inhale and max exhale. The plugins in the custom processing page were used to create an ROI that separated the lungs from the rest of the image. 3D reconstructed images of the lung only were then opened in CTvol software (Bruker) where the color (red=69%, green=50%, blue=50%) and the opacity (7%) of the lung was changed.

[2] = tested on: DR5-/- mice; assay: Radiation pneumonitis after whole-thorax x-ray irradiation, H&E of lung, DR5-null mice; type: in vivo, mouse; conditions: 20 Gy
Description: (§1) However, before embarking on the planned experiment, we decided to perform a preliminary, short-term treatment feasibility experiment to ensure some mouse survival after 20 Gy of thoracic irradiation (FIG. 1B). The preliminary experiment was performed with WT and DR5-null mice that were irradiated with 20 Gy, and this was followed by either weekly doses of TIC10/ONC201 (100 mg/kg for total of two doses) or twice a week doses of TLY012 (10 mg/kg for total of four doses) for 2 weeks.
Animal studies were carried out at Brown University facilities with approval from Brown University IACUC. C57B1/6 mice (Taconic), mice with bi-allelic loss of TRAIL Death Receptor-(DR5-/-) in a C57B1/6 background, and mice with bi-allelic loss of TRAIL (TRAIL -/-) in a C57B1/6 background were given a single whole-thorax x-ray (Philips RT250) irradiation dose of 20 Gy with shielding of other organs. 8-15-week-old male and female mice of each genotype were used. […] Treatment was continued for two weeks, where TLY012 was administered twice a week and ONC201 was administered once a week. For each genetic background, two mice received a control PO, two mice received TLY012 IP, and two mice received ONC201 PO. Mice were weighed twice a week, and 13 days post-irradiation all mice were euthanized. Organs were harvested from the mice and 600 μL of blood was collected via cardiac puncture for serum cytokine analysis. […]

[3] = tested on: male TRAIL-/- mice; assay: Masson's trichrome stain of lung 22 weeks post-radiation (late fibrosis); type: in vivo, mouse; conditions: 18 Gy, 10 mg/kg twice a week
Excerpt: In order to examine the late term effects of thoracic radiation, we designed an experiment where the single radiation dose was lowered to 18 Gy in male TRAIL-/- mice. […] At 22 weeks when mice reached criteria for euthanasia, they were sacrificed and lung tissue was harvested. Lung tissue slides were stained with Masson's trichrome and imaged at 10X on an Olympus VS200 slide scanner.

[4] = tested on: TRAIL-/- mice; assay: Survival after whole-thorax irradiation, TRAIL-/- mice; type: in vivo, mouse
Description: Starting one hour before irradiation, mice were treated with either 10 mg/kg of TLY012 (D&D Pharmatech) by intraperitoneal (IP) injection or 100 mg/kg of ONC201/TIC10 (Chimerix/Oncoceutics) by oral gavage (PO) or a control gavage consisting of 20% Cremophor® EL (Sigma #238470) and 70% Dulbecco's phosphate buffered saline solution (Cytiva SH30264.02) per volume via PO (n=2/gender/treatment).

[5] = tested on: C57B1/6 mice; assay: Radiation pneumonitis after whole-thorax x-ray irradiation, H&E of lung, wild-type mice; type: in vivo, mouse
Description: as §1
Animal studies were carried out at Brown University facilities with approval from Brown University IACUC. C57B1/6 mice (Taconic), mice with bi-allelic loss of TRAIL Death Receptor-(DR5-/-) in a C57B1/6 background, and mice with bi-allelic loss of TRAIL (TRAIL -/-) in a C57B1/6 background were given a single whole-thorax x-ray (Philips RT250) irradiation dose of 20 Gy with shielding of other organs. 8-15-week-old male and female mice of each genotype were used. […] Treatment was continued for two weeks, where TLY012 was administered twice a week and ONC201 was administered once a week. For each genetic background, two mice received a control PO, two mice received TLY012 IP, and two mice received ONC201 PO. Mice were weighed twice a week, and 13 days post-irradiation all mice were euthanized. Organs were harvested from the mice and 600 μL of blood was collected via cardiac puncture for serum cytokine analysis. Organs were preserved in 10% formalin then embedded in paraffin and sectioned at a distance of 5 μm. […] TRAIL-/- female mice were also subjected to a survival study with a single whole-thorax radiation doses of 15 Gy or 18 Gy treated with the same regimen of TLY012 or control (n=2/radiation dose/treatment) (FIG. 3B). In order to determine the lethal dose of radiation for C57B1/6 mice, female C57B1/6 mice were treated with a single dose of whole-thorax irradiation of 25 Gy in a survival study where they were treated with either TLY012 or remained control (n=6/treatment) (FIG. 3C).

TLY012: N-terminal PEGylated recombinant human TRAIL; PEGylated trimeric TRAIL formulation
3D reconstruction of lungs: clarity and visible airway space ([1]; same opacity conditions, FIG. 7B): overall clearer and have more visible airway space | lung expansion upon inhalation (μCT) ([1]; twice weekly treatment, two weeks post irradiation, versus 15 Gy control, FIG. 7A): expand more upon inhalation | rescue from radiation pneumonitis ([2]; DR5-/- mice, FIG. 2A, B): did not observe rescue | protection from pneumonitis ([2]; DR5-null mice, preliminary experiment, 2 weeks treatment, FIG. 1C): lack of protection | collagen deposition / fibrosis (Masson's trichrome) [3]: rescue; also recorded: decrease in collagen deposition; also recorded: less fibrosis | protection from lethality ([4]; female TRAIL-/- mice, 15 Gy, FIG. 3B): protection from lethality | survival ([4]; female TRAIL-/- mice, 18 Gy whole-thorax irradiation, FIG. 3B): 3 weeks | survival / rescue from lethality ([4]; male TRAIL-/- mice, 18 Gy chest irradiation, 10 mg/kg, FIG. 3A): increased survival; also recorded: rescue from lethality | protection from pneumonitis ([5]; WT mice, 20 Gy thoracic irradiation, preliminary experiment, 2 weeks treatment, versus irradiated control, FIG. 1C): qualitative evidence of protection from pneumonitis | rescue from radiation-induced pneumonitis ([5]; irradiated C57B1/6 mice, FIG. 2): could rescue mice from radiation-induced pneumonitis
